According to patent publication US20230101743A1, “SUBSTITUTED TRIAZINE COMPOUNDS AND USES THEREOF” (MUSC FOUNDATION FOR RESEARCH DEVELOPMENT, priority 2020, published 2023):

Columns and labels:
APOB mRNA = APOB mRNA level by real-time qPCR; format: cell-based, human; conditions: 2 μg/mL, 24 hours
Method: G. Human iPSC-derived hepatocytes were treated with 2 μg/mL of DL-1 or equivalent concentration of DMSO for 24 hours. […] (A) APOB mRNA level was determined using real-time qPCR. (B) Intracellular APOB, LDLR, and HSP90 protein levels were determined via immunoblot. (C) Quantification of biological replicates of immunoblots on samples treated as in (B). Data are shown as mean±SEM of four replicates (n=4).
C. Human iPSC-derived hepatocytes (iPSC-Heps) were treated with 2 μg/mL of DL-1 or equivalent concentration of DMSO for 24 hours. In FIG. 7A, APOB mRNA level was determined using real-time qPCR. In FIG. 7B Intracellular APOB, LDLR, and HSP90 protein levels were determined via immunoblot; Quantification of biological replicates of immunoblots. Data are shown as mean±SD of four replicates (n=4). In FIG. 12A LDL uptake assay was performed by pre-treating cells with 2 μg/mL of DL-1, 20 μM of Atorvastatin, and equivalent concentration of DMSO for 24 hours followed by 4 hours of pHrodo-LDL exposure; LDL endocytosis was determined and quantified by fluorescence image; data are shown as mean±SD of triplicates (n=3). […]
Human iPSC-derived hepatocytes (Day 20) were treated with 2 μg/mL of DL-1 for 24 hours. […] Quantitative real-time PCR was performed on a BioRad CFX384 real-time PCR machine.

[1] = system: total cholesterol levels within the medium; test: Total cholesterol quantification in culture medium of iPSC-derived hepatocytes; format: cell-based, human; conditions: 2 μg/mL, 24 hours; normalized with DMSO treated control
Method: B. Human iPSC-derived hepatocytes were treated with 2 μg/mL of DL-1 for 24 hours. Total cholesterol levels within the medium were determined and normalized with DMSO treated control. Data are shown as mean±SEM of six replicates (n=6); * ** P<0.001.
Cell Culture medium was harvested from human iPSC-derived hepatocytes (Day 20) before and after 24 hours of DL-1 (2 μg/mL) or vehicle treatment. Pre-drug and Post-drug medium were concentrated using Amico® Ultra 10K Centrifugal Filters (Sigma-Aldrich, #Z740171), and total cholesterol levels were determined using the colorimetric cholesterol assay kit (Sigma-Aldrich, #MAK043) following the manufactural instructions.

[2] = Solubilities in water and 1 x PBS buffer (UV-vis); format: physicochemical; conditions: 25° C.
Method: The molar extinction co-efficients of exemplary cholesterol lowering compounds were measured in 1 x PBS buffer. The compounds were first dissolved in dimethyl sulfoxide. Solutions with a 0.5 mg/ml concentration were then prepared in DMSO. These solutions were diluted further with 1 x PBS by 100-fold, resulting in solutions with a 5 ug/ml concentration. The resulted diluted solutions were then measured and scanned using a UV-vis spectrophotometer for ultra-violet absorbances between 240 nm to 400 nm, using a UV 96-well microplate. The maximum UV absorbances and corresponding wavelengths were recorded (Table 1). The absorbance values were subtracted by that of a blank, 1 x PBS buffer containing […]. The volume of the solutions for UV measurements was 300 ul and the depth of the solutions was 0.7 cm. The molar extinction co-efficients were then calculated based on formula
The solubilities of the exemplary cholesterol lowering compounds were measured in water and 1 x PBS buffer. The compounds were first stirred with water and 1 x PBS buffer individually at room temperature for 1 h. The suspensions were then centrifuged for 2 min. The top clear solutions were filtered through filter paper, resulting in mother liquids, which were centrifuged again and diluted with 1 x PBS buffer for 10-fold for the solubilities in water and 100-fold the solubilities in 1 x PBS buffer. The resulted solutions were measured using a UV-vis spectrophotometer for UV absorbances with the maximum absorbances. The values were subtracted by that of a blank, 1 x PBS buffer. The corrected absorbances were then used to calculate the corresponding concentrations using the formula (1) and extinction coefficients (Table 1) shown above. The individual concentrations were then used to calculate the solubilities in 1.0 mL of water and 1 x PBS buffer.
The compounds were dissolved in DMSO to either 50 mg/ml, 10 mg/ml or 5 mg/ml solutions, which were diluted to 0.5 mg/ml with DMSO. These solutions were then diluted to 5 ug/ml with 1 x PBS buffer. The resulted solutions were then measured in a UV-vis spectrophotometer for UV scanning from 240 nm to 400 nm at 25° C. The absorbance values were subtracted by that of a blank, 1 x PBS buffer containing DMSO. The total volume of the solutions was 300 uL and the path length for each well was 0.7 cm in a UV 96-well plate. The extinction coefficients of the compounds were then calculated based on molar concentrations and the corrected UV absorbances at the maximum absorption (Table 1).
The mixtures wer stirred for 1 h at room temperature, transferred to 1.5 mL Eppendorf tubes, and centrifuged for 2 min. The clear solutions were filtered through filter papers, affording clear solutions, which were centrifuged again for 2 min. The top clear solutions were diluted by 1 x PBS buffer by 10-fold for the solubilities in water and 100-fold for the solubilities in 1 x PBS buffer. The new clear solutions were then measured individually using a UV-vis spectrophotometer and a UV 96-well microplate. The absorbance values were subtracted by that of a blank, 1 x PBS buffer. Concentrations and solubilities of the compounds were then calculated using their extinct coefficients and the corrected UV absorbances at the maximum absorptions (Table 1).

Sc1nc(S)nc(Nc2ccc(Nc3ccccc3)cc2)n1 (racemic) [DL-1, 6-{[4-(phenylamino)phenyl]amino}-1,3,5-triazine-2,4-dithiol]
APOB mRNA level (APOB mRNA): no impact on APOB mRNA and intracellular protein levels
total cholesterol level in culture medium [1]: reduced total cholesterol level
Solubility in 1.0 ml PBS buffer ([2]; 1 × PBS buffer): 25 µg
Solubility in 1.0 ml water ([2]; water): 0.37 µg
